Experimental data as given in patent US4695573A (Hoechst-Roussel Pharmaceuticals Inc., priority 1985, dated 1987).
Where a name gives a salt, the structure may show the parent alone. Read-outs that look alike come from different tables or passages of the source.

Legend:
acetylcholinesterase = acetylcholinesterase (Homo sapiens, UniProt P22303); assay: Cholinesterase Inhibition Assay (photometric method of Ellman et al.); format: biochemical
[1] = tested on: cholinergically deficient memory; assay: Dark Avoidance Assay (block of scopolamine-induced memory impairment); format: in vivo, mice; conditions: Mus musculus, read-out: % of Animals Greater than Scopolamine; for responders at 0.16 mg/kg: dose 0.16 mg/kg of body weight; for responders at 5 mg/kg: dose 5.0 mg/kg of body weight; for responders at 2.5 mg/kg: dose 2.5 mg/kg of body weight; for responders at 1.25 mg/kg: dose 1.25 mg/kg of body weight
Experimental: In this assay mice are tested for their ability to remember an unpleasant stimulus for a period of 24 hours. A mouse is placed in a chamber that contains a dark compartment; a strong incandescent light drives it to the dark compartment, where an electric shock is administered through metal plates on the floor. The animal is removed from the testing apparatus and tested again, 24 hours later, for the ability to remember the electric shock.
If scolopamine, an anticholinergic that is known to cause memory impairment, is administered before an animal's initial exposure to the test chamber, the animal re-enters the dark compartment shortly after being placed in the test chamber 24 hours later.

[2] = mice, dose 0.63 mg/kg of body weight, retest after 24 hours
[3] = photometric method of Ellman, read-out: Cholinesterase Inhibition IC50

Chain of acetylcholinesterase (P22303 32-614): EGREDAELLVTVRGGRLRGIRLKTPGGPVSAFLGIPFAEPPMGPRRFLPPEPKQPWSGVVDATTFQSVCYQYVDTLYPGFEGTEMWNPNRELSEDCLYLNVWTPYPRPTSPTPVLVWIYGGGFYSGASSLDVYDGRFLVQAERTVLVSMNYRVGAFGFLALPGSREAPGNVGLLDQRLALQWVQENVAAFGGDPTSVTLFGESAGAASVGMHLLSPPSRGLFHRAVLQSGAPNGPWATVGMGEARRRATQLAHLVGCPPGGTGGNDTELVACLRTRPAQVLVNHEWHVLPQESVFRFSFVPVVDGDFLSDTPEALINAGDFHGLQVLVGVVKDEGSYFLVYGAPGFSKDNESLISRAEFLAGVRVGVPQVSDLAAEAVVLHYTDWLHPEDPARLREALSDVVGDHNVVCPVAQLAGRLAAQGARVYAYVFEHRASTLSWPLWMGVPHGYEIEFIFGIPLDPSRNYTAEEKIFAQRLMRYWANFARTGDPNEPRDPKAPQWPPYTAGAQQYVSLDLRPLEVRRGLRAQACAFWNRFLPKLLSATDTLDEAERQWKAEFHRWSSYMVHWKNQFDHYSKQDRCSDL

Q: Which IC50 (acetylcholinesterase) does the source give for `OC1CCCc2nc3ccccc3c(NCc3ccccc3C(F)(F)F)c21` (stereo not shown) [1,2,3,4-Tetrahydro-9-(2-trifluoromethylbenzylamino)acridin-1-ol] here?
A: 920 µM

Q: And the responders at 0.16 mg/kg ([1]; mice, retest after 24 hours)?
A: 38%

Q: Which results are given for `OC1CCCc2nc3ccccc3c(NCc3ccc(C(F)(F)F)cc3)c21` (stereo not shown) [1,2,3,4-Tetrahydro-9-(4-trifluoromethylbenzylamino)acridin-1-ol]?
A: IC50 (acetylcholinesterase): 550 µM; responders at 0.16 mg/kg ([1]; mice, retest after 24 hours): 22%

Q: For `O=C1CCCc2nc3ccccc3c(NCCCC(c3ccccc3)c3ccccc3)c21` [3,4-Dihydro-9-(4,4-diphenylbutylamino)acridin-1(2H)-one], which IC50 (acetylcholinesterase) is on record?
A: 13 µM

Q: And the responders at 0.63 mg/kg [1, 2]?
A: 50%

Q: Which results are given for `O=C1CCCc2nc3ccccc3c(NCCCC(c3cccc(F)c3)c3cccc(F)c3)c21` [3,4-Dihydro-9-[4,4-bis(3-fluorophenyl)butylamino]acridin-1(2H)-one]?
A: IC50 (acetylcholinesterase): 1.9 µM; responders at 5 mg/kg ([1]; mice, retest after 24 hours): 40%

Q: What does the source list for `OC1CCCc2nc3ccccc3c(NCc3ccccc3Cl)c21` (stereo not shown) [9-(2-Chlorobenzylamino)-1,2,3,4-tetrahydroacridin-1-ol]?
A: IC50 (acetylcholinesterase): 130 µM; responders at 0.31 mg/kg ([1]; mice, dose 0.31 mg/kg of body weight, retest after 24 hours): 27%

Q: `OC1CCCc2nc3ccccc3c(NCc3ccccc3F)c21` (stereo not shown) [9-(2-Fluorobenzylamino)-1,2,3,4-tetrahydroacridin-1-ol maleate] was tested. Which IC50 (acetylcholinesterase) did it give?
A: 210 µM

Q: What about the responders at 2.5 mg/kg ([1]; mice, retest after 24 hours) of the same compound?
A: 27%

Q: What does the source list for `COc1ccccc1CNc1c2c(nc3ccccc13)CCCC2O` (stereo not shown) [9-(2-Methoxybenzylamino)-1,2,3,4-tetrahydroacridin-1-ol]?
A: IC50 (acetylcholinesterase): 150 µM; responders at 0.21 mg/kg ([1]; mice, dose 0.21 mg/kg of body weight, retest after 24 hours): 33%

Q: With `OC1CCCc2nc3ccccc3c(NCc3ccc(F)cc3)c21` (stereo not shown) [9-(4-fluorobenzylamino)-1,2,3,4-tetrahydroacridin-1-ol] as the compound, how does the IC50 (acetylcholinesterase) read?
A: 110 µM

Q: And the responders at 1.25 mg/kg ([1]; mice, retest after 24 hours)?
A: 33%

Q: `Nc1c2c(nc3cc(C(F)(F)F)ccc13)CCCC2O` (stereo not shown) [9-Amino-1,2,3,4-tetrahydro-6-trifluoromethylacridin-1-ol] was tested. Which responders at 0.63 mg/kg [1, 2] did it give?
A: 71%

Q: Which responders at 0.63 mg/kg [1, 2] does the source give for `Nc1c2c(nc3ccccc13)CCCC2O` (stereo not shown) [9-Amino-1,2,3,4-tetrahydroacridin-1-ol] here?
A: 33%

Q: Which IC50 (acetylcholinesterase; [3]) does the source give for `Nc1c2c(nc3ccccc13)CCCC2=O` [9-Amino-3,4-dihydroacridin-1(2H)--one, 9-Amino-3,4-dihydroacridin-1(2H)-one] here?
A: 250 µM

Q: For `Nc1c2c(nc3ccccc13)CCC=C2` [9-Amino-3,4-dihydroacridine], which IC50 (acetylcholinesterase) is on record?
A: 6.5 µM

Q: And the responders at 2.5 mg/kg ([1]; mice, retest after 24 hours)?
A: 20%

Q: For `OC1CCCc2nc3ccccc3c(NCc3ccccc3)c21` (stereo not shown) [9-Benzylamino-1,2,3,4-tetrahydroacridin-1-ol], which responders at 1.25 mg/kg ([1]; mice, retest after 24 hours) is on record?
A: 27%

Q: Which responders at 5 mg/kg ([1]; mice, retest after 24 hours) does the source give for `O=C1CCCc2nc3cc(F)ccc3c(NCc3ccccc3)c21` [9-Benzylamino-3,4-dihydro-6-fluoroacridin-1(2H)-one, maleate] here?
A: 40%

Q: With `OC1CCCc2nc3ccccc3c(NCCc3ccccc3)c21` (stereo not shown) [9-Phenethylamino-1,2,3,4-tetrahydroacridin-1-ol] as the compound, how does the IC50 (acetylcholinesterase; [3]) read?
A: 240 µM

Q: With `OC1CCCc2nc3ccccc3c(NCc3c(F)c(F)c(F)c(F)c3F)c21` (stereo not shown) [9-[(2,3,4,5,6-Pentafluorobenzyl)amino]-1,2,3,4-tetrahydroacridin-1-ol, fumarate] as the compound, how does the IC50 (acetylcholinesterase) read?
A: 350 µM

Q: What about the responders at 5 mg/kg ([1]; mice, retest after 24 hours) of the same compound?
A: 20%

Q: How did the responders at 5 mg/kg ([1]; mice, retest after 24 hours) turn out when `CC[C@@H]1C(=O)OC[C@@H]1Cc1cncn1C` [Pilocarpine, reference compound] was run?
A: 13%

Q: With `Nc1c2c(nc3ccccc13)CCCC2` [Tacrine, 9-Amino-1,2,3,4-tetrahydroacridine, reference compound] as the compound, how does the responders at 0.63 mg/kg ([1]; 24 h) read?
A: 13%
